Experimental data reported in article PMC3022637, “The modulation of TRPM7 currents by nafamostat mesilate depends directly upon extracellular concentrations of divalent cations” (Molecular Brain, 2010).

Assays:
[1] = target: T1, TRPM7 current in cultured mouse hippocampal neurons (Mus musculus, UniProt Q923J1); experiment: Whole-cell voltage clamp of TRPM7 currents in cultured hippocampal neurons (low divalent cation-induced or compound-activated); type: cell-based; details: for direct activation of TRPM7 current at physiological divalent cations: 2 mM Ca2+ and 1 mM Mg2+
T1 construct: supports the substantial involvement of endogenous TRPM7 channels in the responses of neurons; endogenous in cells; host or cells: primary cultured hippocampal neurons from embryonic Swiss mice
T1 sequence (Q923J1 whole entry): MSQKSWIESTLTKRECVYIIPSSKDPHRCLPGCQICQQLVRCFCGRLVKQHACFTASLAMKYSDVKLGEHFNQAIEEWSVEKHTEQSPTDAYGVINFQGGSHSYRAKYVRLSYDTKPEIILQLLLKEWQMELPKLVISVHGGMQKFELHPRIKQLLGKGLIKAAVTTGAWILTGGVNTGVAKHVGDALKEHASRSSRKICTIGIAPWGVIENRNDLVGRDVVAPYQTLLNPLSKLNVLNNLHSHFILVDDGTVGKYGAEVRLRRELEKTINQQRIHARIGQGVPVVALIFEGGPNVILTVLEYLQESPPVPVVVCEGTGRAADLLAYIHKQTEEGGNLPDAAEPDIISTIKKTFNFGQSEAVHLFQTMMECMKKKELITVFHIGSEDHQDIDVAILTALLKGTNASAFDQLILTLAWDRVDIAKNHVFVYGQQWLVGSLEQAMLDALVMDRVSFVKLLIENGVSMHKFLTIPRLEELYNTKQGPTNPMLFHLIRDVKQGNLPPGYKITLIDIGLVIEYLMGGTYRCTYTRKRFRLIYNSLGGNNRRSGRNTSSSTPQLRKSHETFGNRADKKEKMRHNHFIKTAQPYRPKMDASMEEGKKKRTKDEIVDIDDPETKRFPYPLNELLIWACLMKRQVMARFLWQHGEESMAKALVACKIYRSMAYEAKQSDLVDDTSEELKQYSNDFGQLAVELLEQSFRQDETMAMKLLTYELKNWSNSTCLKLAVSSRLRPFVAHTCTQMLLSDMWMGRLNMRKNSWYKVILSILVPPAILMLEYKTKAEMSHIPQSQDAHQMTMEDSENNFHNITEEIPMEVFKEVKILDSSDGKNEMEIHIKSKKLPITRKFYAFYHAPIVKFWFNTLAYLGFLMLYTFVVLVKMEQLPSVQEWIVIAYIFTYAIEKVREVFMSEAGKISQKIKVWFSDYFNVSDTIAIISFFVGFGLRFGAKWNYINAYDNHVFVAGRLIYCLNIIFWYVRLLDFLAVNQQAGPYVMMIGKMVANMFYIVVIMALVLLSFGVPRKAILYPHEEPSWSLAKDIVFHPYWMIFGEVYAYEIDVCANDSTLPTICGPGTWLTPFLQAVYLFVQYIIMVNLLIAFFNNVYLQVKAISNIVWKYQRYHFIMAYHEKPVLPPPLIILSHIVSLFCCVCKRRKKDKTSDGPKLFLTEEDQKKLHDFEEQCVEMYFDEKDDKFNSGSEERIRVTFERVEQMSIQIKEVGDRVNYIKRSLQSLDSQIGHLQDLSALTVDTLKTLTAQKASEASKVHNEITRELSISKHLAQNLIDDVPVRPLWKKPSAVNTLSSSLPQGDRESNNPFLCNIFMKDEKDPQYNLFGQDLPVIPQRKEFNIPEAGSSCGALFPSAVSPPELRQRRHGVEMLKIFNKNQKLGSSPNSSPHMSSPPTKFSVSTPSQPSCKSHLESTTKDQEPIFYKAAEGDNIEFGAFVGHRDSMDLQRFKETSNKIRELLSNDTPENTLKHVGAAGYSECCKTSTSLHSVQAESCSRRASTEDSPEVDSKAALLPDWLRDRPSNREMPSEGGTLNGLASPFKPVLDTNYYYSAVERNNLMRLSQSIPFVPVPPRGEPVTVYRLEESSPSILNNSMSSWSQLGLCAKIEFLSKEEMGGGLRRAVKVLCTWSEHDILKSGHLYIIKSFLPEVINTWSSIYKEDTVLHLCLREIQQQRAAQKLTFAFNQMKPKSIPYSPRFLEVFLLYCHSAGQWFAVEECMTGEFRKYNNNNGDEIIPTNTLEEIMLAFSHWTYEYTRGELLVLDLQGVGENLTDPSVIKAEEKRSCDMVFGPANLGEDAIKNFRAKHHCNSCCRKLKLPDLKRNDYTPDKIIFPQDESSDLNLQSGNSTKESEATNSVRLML

human TRPM7 channels = tested on: human TRPM7 channels; design: method as in PMID 18719395; details: pH 7.4 to 4.0; cited from earlier work

SMILES: N=C(N)c1ccc2cc(O)ccc2c1 [AN, 6-amidino-2-naphthol]
- I compound / I control, pre-applied ([1]; 200 μM, normalized current): 85 ± 5%
- block of TRPM7 current, co-applied ([1]; 1 mM (p-GBA up to 1 mM), low divalent-evoked current): only partially inhibited
- I compound / I control, co-applied ([1]; 1 mM, normalized current): 69 ± 29%
- potentiation of TRPM7 current, pre-applied ([1]; concentration not given): no potentiation

SMILES: [Ca+2] [Ca^2+]
- reduction of IC50 for monovalent cation block on decreasing pH from 7.4 to 4.0 (human TRPM7 channels): 410 fold

SMILES: N=C(N)c1ccc(-c2cc3ccc(C(=N)N)cc3[nH]2)cc1 [DAPI]
- direct activation of TRPM7 current at physiological divalent cations ([1]; 25 μM): without effect
- direct activation of TRPM7 current at physiological divalent cations ([1]; 100 μM): strong effect
- block of TRPM7 current ([1]; 250 μM, current evoked by 0.1 mM Ca2+ and 0.1 mM Mg2+): completely and reversibly blocked
- Hill coefficient ([1]; current evoked by 0.1 mM Ca2+ and 0.1 mM Mg2+): 1.8
- IC50 ([1]; current evoked by 0.1 mM Ca2+ and 0.1 mM Mg2+, -60 mV, acutely applied, read-out: IC50, block of TRPM7 current): 38 µM

SMILES: CCOC(=O)c1ccc(OC(=O)CCCCCNC(=N)N)cc1 [Gabexate, gabexate]
- potentiation of TRPM7 current, pre-exposed ([1]; 200 μM): failed to potentiate
- inhibition at 200 µM ([1]; 200 μM, read-out: inhibition of TRPM7 current, co-applied): 45 ± 3%

SMILES: [Gd+3] [Gd^3+]
- inhibition of TRPM7 current activated by NM ([1]; 10 μM): 97 ± 2%
